# Results from patent US20210371895A1, “BACTERIAL RESPONSE” (BioFire Diagnostics, LLC, priority 2018, published 2021).
# Assays:
# lexA [1] = assay: Pouch panel (+dsDNAse +RT) relative expression level of lexA after ciprofloxacin exposure; format: cell-based, Pseudomonas aeruginosa; details: 7.5 or 15 μg/mL ciprofloxacin, 10, 30 and 60 minutes, versus zero ciprofloxacin
# Excerpt: In this illustrative example, a pouch similar to pouch 510 was developed to include a DNase treatment step by including DNAse, illustratively a dsDNAse from Pandalus borealis, freeze dried into the fitment, as well as a slight modification in the elution buffer that is freeze dried into injection channel 515e, although it is understood that this dsDNAse is illustrative only and that other DNAses can be used, as well as other DNA removal methods. For the DNAse step, subsequent to elution, the temperature is raised to a temperature suitable for the DNAse enzyme, illustratively 42° C., followed by reverse-transcription and first-stage multiplex PCR. In this example, the pouch contained 45 different assays of interest (including control genes such as rpoD), targets where mRNA is present in concentrations greater than genomic (“high copy targets”) such as PA14_RS28865, as well as a number of antibiotic resistance gene targets including recA (specific) and lasI (generic) that are present in concentrations lower than genomic. However, it is understood that this panel of assays is illustrative only, and any combination of assays may be used. In one illustrative embodiment, all assays are for RNA targets, illustratively mRNA targets, although other RNA targets may be suitable for detection and/or quantification using the methods provided herein. […]
# lasI = assay: Benchtop RT-PCR Cp of lasI transcript, strains S1/R1 with ciprofloxacin; format: cell-based, P. aeruginosa; details: 15 μg/mL Ciprofloxacin for 10 minutes, cDNA 1:100 dilution
# Experimental: (§1) P. aeruginosa, two strains: one that is resistant and the other susceptible. • S1=susceptible to Ciprofloxacin • R1=resistant to Ciprofloxacin
# (§2) In this example, each strain (S1 and R1) was grown to 0.5 OD600 (-1×10^8 CFU/mL) and each was treated with or without 15 μg/mL of Ciprofloxacin for 10 minutes (two strains, each +/− antibiotic, provides four test conditions). It is understood that the OD and antibiotic incubation time are illustrative only and that other concentrations and times may be used. cDNA was generated by extracting on Magnapure using TNA kit, following bacterial lysis protocol, quantifying using Qubit RNA HS Assay Kit (Q32852), genomic DNA removed and cDNA generated using Maxima H Minus cDNA Kit with dsDNAse (M1682).
# For some of these genes, a similar ΔCp between susceptible and resistant strains was found both with and without the presence of antibiotics. Such genes are referred to as “generic antibiotic resistance genes” as they distinguish between susceptible and resistant strains even in the absence of antibiotics. Several of these generic antibiotic resistance genes are in the quorum sensing pathway or the iron uptake pathway, while the pathway for several others are unknown. These genes included LasI, RhlI, pqsH, pvdE, PepSY, speD, PA14_RS20905, and coA. […]
# lexA [2] = assay: Benchtop RT-PCR Cp of lexA transcript, strains S1/R1 with ciprofloxacin; format: cell-based, P. aeruginosa; details: 15 μg/mL Ciprofloxacin for 10 minutes, cDNA 1:100 dilution
# Experimental: as §1, §2
# For other genes, significant ΔCp was found only in the presence of antibiotics. These “specific antibiotic resistance genes” include lexA, sulA, ptrB, and, PA14_RS07985, with ptrB showing up-regulation in the resistant strain. The amplification curves for lexA are shown in FIG. 5B, where the susceptible strain with antibiotic has a Cp about 2 cycles earlier than the other three conditions. For the other three conditions, the resistant strain with and without antibiotics had essentially the same Cp as the susceptible strain without antibiotics.
smiles,measurement,setting,value
O=C(O)c1cn(C2CC2)c2cc(N3CCNCC3)c(F)cc2c1=O [Ciprofloxacin],relative expression of lexA (geometric mean normalized Cp),lexA [1]; resistant strain,did not change
same,relative expression of lexA (geometric mean normalized Cp),lexA [1]; susceptible strain,clear time dependent induction
same,Cp of lasI amplification curve,lasI; Resistant strain +ABX,15.15
same,Cp of lasI amplification curve,lasI; Susceptible strain +ABX,10.55
same,Cp of lexA amplification curve,lexA [2]; Resistant strain +ABX,18.55
same,Cp of lexA amplification curve,lexA [2]; Susceptible strain +ABX,16.36
